From publication doi:10.64898/2025.12.31.695415v1, “Correlated dynamics, reactive conformations and non-Arrhenius behaviour in the temperature-dependence of enzyme activity: triosephosphate isomerase” (biorxiv, 2025)

Target: T1, meso-TIM (Saccharomyces cerevisiae, UniProt P00942)
T1 construct: gene TPI1; N-terminal His6 tag, pET28b, E. coli BL21(DE3); dimer; PDB 1NEY is the simulation model
T1 sequence (P00942 2-248): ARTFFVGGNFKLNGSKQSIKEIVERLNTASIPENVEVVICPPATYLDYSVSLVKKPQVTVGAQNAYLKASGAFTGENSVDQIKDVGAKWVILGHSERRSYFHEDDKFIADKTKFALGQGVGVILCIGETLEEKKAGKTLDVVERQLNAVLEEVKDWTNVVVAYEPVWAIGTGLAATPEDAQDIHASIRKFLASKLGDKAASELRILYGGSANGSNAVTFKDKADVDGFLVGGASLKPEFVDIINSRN
Assay: stopped-flow, GAPD-coupled assay, […] nm
Type: biochemical
Conditions: 50 mM HEPES pH 7.4, 150 mM NaCl, 10 mM MgCl2, 2.5 mM (NH4)2SO4; two temperatures

## O=C(CO)COP(=O)(O)O [dihydroxyacetone phosphate]
  Km: substrate binding kinetics were determined at two temperatures
